# Laboratory results reported in paper PMC9579956 (RSC Medicinal Chemistry, 2022).
# Biological target: Mycobacterium thermoresistible (Mtr) LpqY (Mycolicibacterium thermoresistibile, UniProt G7CES0)
# Assay type: binding
# Conditions: single dose MST screen against LpqY
# Mycobacterium thermoresistible (Mtr) LpqY, sequence (G7CES0 29-471): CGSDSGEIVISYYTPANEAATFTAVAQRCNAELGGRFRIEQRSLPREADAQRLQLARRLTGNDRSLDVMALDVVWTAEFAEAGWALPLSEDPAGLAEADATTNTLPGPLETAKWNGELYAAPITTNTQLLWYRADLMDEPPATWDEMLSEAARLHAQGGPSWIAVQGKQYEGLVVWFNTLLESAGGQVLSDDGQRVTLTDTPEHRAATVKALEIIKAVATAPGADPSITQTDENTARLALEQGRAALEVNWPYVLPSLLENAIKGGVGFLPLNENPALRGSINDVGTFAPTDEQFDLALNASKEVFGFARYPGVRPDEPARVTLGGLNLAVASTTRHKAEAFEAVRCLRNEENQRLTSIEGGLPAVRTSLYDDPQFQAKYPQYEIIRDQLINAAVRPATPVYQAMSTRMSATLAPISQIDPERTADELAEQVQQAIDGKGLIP
row,SMILES,Pathogen Box screen signal/noise ratio
1,Nc1ncnc2c1ncn2[C@@H]1O[C@H](COS(=O)(=O)NC(=O)c2ccccc2O)[C@@H](O)[C@H]1O [MMV687700],1.1
2,Cc1cc(C)cc(COc2ccc3c(C)c(CCC(=O)O)c(=O)oc3c2C)c1 [MMV676476],2.7
3,CO/N=C(\C(=O)OC)c1ccccc1CO/N=C(\C)c1cccc(C(F)(F)F)c1 [MMV688754],1.2
4,CNCCC(Oc1ccc(C(F)(F)F)cc1)c1ccccc1 (centres unmarked) [MMV001561],0.9
5,CC1=Nc2ccc(Cl)cc2C(c2ccccc2)N1CCNC(=O)CN(C)C (centres unmarked) [MMV688410],0.5
6,CC(C)C(Oc1cccc2ccccc12)C(=O)O (centres unmarked) [MMV676191],0.9
7,CC1COC(Cn2cncn2)(c2ccc(Oc3ccc(Cl)cc3)cc2Cl)O1 (centres unmarked) [MMV688943],0.75
8,Cc1ccccc1CN1CCC(O)(c2ccc(Cl)c(C(F)(F)F)c2)CC1 [MMV688846],0.25
9,Nc1c2c(nc3sc4c(c13)CCCC4)CCCC2 [MMV676588],0.449
10,Cc1cc(C)n(-c2ccc(NC(=O)C3CCN(Cc4cnc(C)s4)CC3)cc2)n1 [MMV007625],1.4
11,COC(=O)c1c(NC(=O)c2cc3ccccc3oc2=O)sc2c1CCN(Cc1ccccc1)C2 [MMV676480],1.3
12,O=C1[C@@H](Oc2ccccc2)[C@@H](c2ccc(Cl)cc2)N1CCn1cnc2c(NCc3ccccc3)ncnc21 [MMV688352],0.212
13,Cc1cc(C2=NOC(c3cc(Cl)c(F)c(Cl)c3)(C(F)(F)F)C2)ccc1C(=O)NCc1ccc2c(c1)C(C)(C)OB2O (centres unmarked) [MMV687776],1.6
14,Nc1ncc(-c2ccc(C(F)(F)F)nc2)cc1-c1ccc(C(F)(F)F)nc1 [MMV668727],2.0
15,Nc1ncc(-c2cn[nH]c2)cc1-c1nc2cc(Cl)cnc2[nH]1 [MMV023370],1.1
16,O=C(c1cc2ccccc2o1)N1CCN(Cc2ccc3c(c2)OCO3)CC1 [MMV676520],1.1
17,O=C(Nc1c(O)cccc1-c1nc2c(C(=O)O)cccc2o1)c1cc(-c2ccccc2)on1 [MMV676008],1.7
18,FC(F)(F)c1cnc(Sc2nnc(-c3ccncc3)o2)c(Cl)c1 [MMV011765],1.6
19,O=C(NCc1nnc2n1CCCCC2)c1ccc(-c2ccc(F)cc2)o1 [MMV688796],0.278
20,COc1nc2ccc(Br)cc2cc1[C@@H](c1ccccc1)[C@@](O)(CCN(C)C)c1cccc2ccccc12 [MMV689758],0.444
21,Clc1cccc(CO[C@H]2CCc3ccccc3[C@@H]2n2ccnn2)c1 [MMV676159],1.0
22,Cc1cc(C)c2cc(C(=O)NC3CCCCCCC3)[nH]c2c1 [MMV687146],1.1
23,CCOc1ccc(OCC(=O)Nc2cc(C)cc(C)c2)cc1 [MMV676470],0.2
24,CC(C)(C)C(O)C(Oc1ccc(-c2ccccc2)cc1)n1cncn1 (centres unmarked) [MMV688942],0.451
25,COc1ccc(C2CC(c3cccs3)=NN2C(=O)c2ccco2)cc1OC (centres unmarked) [MMV019234],2.1
26,CCn1ncc2c(NC3CCOCC3)c(CNC(=O)c3ccnn3C)c(C)nc21 [MMV026356],0.6

row,SMILES,Pathogen Box screen signal/noise ratio
1,CCCCCCCCCCCCCCCCOP(=O)([O-])OCC[N+](C)(C)C [MMV688990],0.7
2,O=C1Nc2ccc(Br)cc2C12NCCc1c2[nH]c2ccccc12 (centres unmarked) [MMV006239],2.0
3,Clc1ccc(CN2CCN(C3=NCCN3)CC2)cc1Cl [MMV689060],0.464
4,CO[C@H]1/C=C/O[C@@]2(C)Oc3c(C)c(O)c4c(O)c(/c(=C/NN5CCN(C)CC5)c(O)c4c3C2=O)=N\C(=O)/C(C)=C\C=C/[C@H](C)[C@H](O)[C@@H](C)[C@@H](O)[C@@H](C)[C@H](OC(C)=O)[C@@H]1C [MMV688775],1.1
5,C[C@]1(O)C[C@@H](c2nc(-c3ccc4ccc(-c5ccccc5)nc4c3)c3c(N)nccn32)C1 [MMV676605],0.9
6,Cc1cccc(-c2nc(Nc3ccncn3)c3sccc3n2)n1 [MMV688122],1.3
7,COc1cccc(OCC(=O)c2ccc(Br)cc2)c1 [MMV676379],-0.0278
8,CCNC(=O)C(C)Nc1nc(-c2cccnc2)nc2sc(C)c(C)c12 (centres unmarked) [MMV1037162],1.2
9,O=C(NCc1cc(Cl)cc(Cl)c1)c1c(C(F)(F)F)nc2ccccn12 [MMV687699],0.8
10,COc1cccn2c(C(=O)N3CCCCC3)c(C(F)(F)F)nc12 [MMV1110498],1.5
11,Cc1cc(Cl)c(S(=O)(=O)N2CCCC2)cc1OCC(=O)NC1CCCCC1 [MMV006833],1.6
12,Cc1ccc(NC(=O)CC2COc3ccccc3O2)cc1Cl (centres unmarked) [MMV676431],2.3
13,Clc1ccc(Cl)c(CO[C@H]2CCCC[C@@H]2n2ccnc2)c1 [MMV676048],1.1
14,CCN(CC)S(=O)(=O)c1ccc(C(=O)Nc2cc(C)nn2-c2nc(C)c(C)c(=O)[nH]2)cc1 [MMV595321],0.167
15,CS(=O)(=O)N1CCC(Cn2nc(Cc3cccc4ccccc34)c3c(N)ncnc32)CC1 [MMV676050],0.8
16,O=C(Nc1nnc(S)s1)c1cc(Br)ccc1Cl [MMV676492],0.9
17,N#Cc1ccc(-c2ccc(OCC(N)=O)cc2)cc1 [MMV053220],0.639
18,O=C(Nc1nc(-c2ccccn2)cs1)C1CC1c1ccccc1F (centres unmarked) [MMV1028806],0.225
19,COc1ccc2nc(C)cc(OCC(=O)NCc3ccccc3)c2c1 [MMV687189],0.0536
20,COc1ccc(S(=O)(=O)Nc2ccc(CN3CCN(C(=O)c4cccc(C#N)c4)CC3)cc2)cc1 [MMV689029],0.156
21,Cc1cc(NCC(C)C)c2n[nH]c(-c3ccccc3)c2n1 [MMV021375],0.9
22,CC(C)(C)n1nc(Cc2cccc3ccccc23)c2c(N)ncnc21 [MMV676599],0.6
23,COc1cc(C2=NCCN2)ccc1-n1cc(-c2cccc(C3=NCCN3)c2)nn1 [MMV688474],0.217
24,COc1ccc2nc(C)cc(OCC(=O)Nc3ccccc3OC)c2c1 [MMV687188],1.7
25,NC(=O)c1cc(-c2ccsc2)ccc1OCCOc1ccccc1 [MMV687138],1.8
26,CC(C)(C)OC(=O)N1CCN(c2cc(-c3ccc(Oc4ccccc4)cc3)n[nH]2)CC1 [MMV676057],1.2

row,SMILES,Pathogen Box screen signal/noise ratio
1,CNc1cc(C)nc(C2CN(C(=O)c3n[nH]c4ccccc34)CCO2)c1 (centres unmarked) [MMV689709],2.1
2,Cc1cnc(CCNC(=O)c2cc(-c3ccc(Cl)cc3)cs2)[nH]1 [MMV676350],1.3
3,COc1cccc(OC)c1C(=O)Nc1ccc(Cl)c(-c2nc3ccccc3s2)c1 [MMV676472],0.348
4,O=C(N[C@H](Cc1ccccc1)C(=O)Nc1ccccc1N1CCOCC1)c1cccs1 [MMV688845],1.6
5,Cc1cc2nc(NC(=O)C(C)(C)C)nc(Cl)c2n1Cc1ccc(Cl)cc1 [MMV688704],1.2
6,FC(F)(F)c1nnc2ccc(Cl)nn12 [MMV069458],2.4
7,CC1COC2(CCN(c3nc(=O)c4cc(C(F)(F)F)cc([N+](=O)[O-])c4s3)CC2)O1 (centres unmarked) [MMV676603],1.8
8,CC(C)c1ncc(-c2ccncc2)c([C@H]2CC[C@H](CNC(=O)c3cccnc3)CC2)n1 [MMV676442],0.8
9,O=C(NCc1ccoc1)N1CCN(Cc2ccc3c(c2)OCO3)CC1 [MMV688553],0.8
10,COc1cc(-c2cc(-c3ccc(S(C)(=O)=O)cc3)cnc2N)ccc1O [MMV010576],3.1
11,COc1ccc(C2=NN(C3CCCCCC3)C(=O)C2(C)C)cc1OCCCCOc1ccc(-c2nn[nH]n2)cc1 [MMV690028],2.5
12,O=C(NCCN1CCCC1)c1cc(NCCCCN2CCC(F)(F)CC2)nc2ccc(Cl)cc12 [MMV667494],0.344
13,Cc1cc(C(=O)Nc2cnn(Cc3ccc(Cl)cc3Cl)c2)no1 [MMV009054],0.179
14,OC[C@H]1O[C@@H](n2c3ccc(Cl)cc3c3c(-c4cc5ccccc5o4)ncnc32)C(O)[C@H]1O (some centres unmarked) [MMV688921],1.1
15,Cc1nc(-c2ccccn2)nc(NCCc2ccc(S(C)(=O)=O)cc2)c1Cl [MMV658993],0.75
16,Cc1nn(C)c(C)c1NS(=O)(=O)c1c(Cl)cc(-c2ccnc(N3CCNCC3)c2)cc1Cl [MMV688180],0.15
17,COc1cncc(-c2cncc(N3CCN(c4ccncc4)CC3)n2)c1 [MMV085071],1.2
18,Cc1nn2c(=O)c3c([nH]c2c1-c1ccc(Cl)cc1)CCCC3 [MMV688776],1.5
19,CCOc1ccc2cc(-c3nn(C(C)(C)C)c(N)c3C(N)=O)cnc2c1 [MMV688853],3.8
20,O=C(C1CCN(c2cc(-n3cccc3)ncn2)CC1)N1CCc2ccccc2C1 [MMV687172],0.431
21,N#Cc1nc(-c2ccccc2)oc1S(=O)(=O)c1ccc(Cl)cc1 [MMV676412],0.6
22,O=C(Nc1ccc(N2CCNCC2)cc1)c1ccn2ncc(-c3cccc(Cl)c3)c2n1 [MMV022478],2.0
23,N#CCN(CCCCN1CCN(c2ccc(F)cc2)CC1)C(=O)OCc1ccccc1 [MMV675997],0.322
24,CC(C)(C)OC(=O)N1CCN(c2nccc(-c3ccc(-c4ccc(Cl)cc4)s3)n2)CC1 [MMV688416],0.333
25,CC(=O)Nc1ccc(-c2noc(CC3CCCN(Cc4cccc(F)c4C)C3)n2)cc1 (centres unmarked) [MMV689061],0.9
